Results reported in patent US9096591B2, “Tetracyclic compounds” (Medivation Technologies, Inc., priority 2007, dated 2015).
Like-named read-outs stand apart in the source and are kept apart here.

How the values were obtained:
[1] = target: T1, human recombinant histamine H2 receptor (Homo sapiens, UniProt P25021); experiment: Histamine H2 radioligand binding ([125I]Aminopotentidine); details: for inhibition at 0.3 µM: 0.3 μM compound
T1 construct: expressed in transfected cells; host or cells: CHO-K1 cells
T1 sequence (P25021 whole entry): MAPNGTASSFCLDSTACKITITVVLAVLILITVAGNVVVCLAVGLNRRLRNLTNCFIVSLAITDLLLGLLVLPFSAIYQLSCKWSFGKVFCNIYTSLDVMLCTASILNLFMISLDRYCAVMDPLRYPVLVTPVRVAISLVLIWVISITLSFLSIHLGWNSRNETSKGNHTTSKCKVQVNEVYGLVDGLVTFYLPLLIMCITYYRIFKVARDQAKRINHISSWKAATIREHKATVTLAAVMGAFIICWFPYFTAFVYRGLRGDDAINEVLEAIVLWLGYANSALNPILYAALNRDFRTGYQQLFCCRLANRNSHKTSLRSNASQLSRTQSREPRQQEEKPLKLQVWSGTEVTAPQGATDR
Summary of the method: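 Test compounds were assessed for their ability to displace radioligand from the human recombinant histamine H2 receptor. Non-specific binding was determined in the presence of 3 μM Tiotidine, and results were expressed as percent inhibition of specific binding, with 1% DMSO serving as the vehicle.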

[2] = target: T2, human recombinant adrenergic α1D receptor (Homo sapiens, UniProt P25100); experiment: Adrenergic α1D radioligand binding ([3H]Prozosin); set-up: Inhibition of ligand binding, Adren. alpha1D: concentration or dose not given beside the values; details: for Inhibition of ligand binding, Adren. alpha1D: percent inhibition of specific binding
T2 construct: expressed in transfected cells; host or cells: HEK-293 cells
T2 sequence (P25100 1-572): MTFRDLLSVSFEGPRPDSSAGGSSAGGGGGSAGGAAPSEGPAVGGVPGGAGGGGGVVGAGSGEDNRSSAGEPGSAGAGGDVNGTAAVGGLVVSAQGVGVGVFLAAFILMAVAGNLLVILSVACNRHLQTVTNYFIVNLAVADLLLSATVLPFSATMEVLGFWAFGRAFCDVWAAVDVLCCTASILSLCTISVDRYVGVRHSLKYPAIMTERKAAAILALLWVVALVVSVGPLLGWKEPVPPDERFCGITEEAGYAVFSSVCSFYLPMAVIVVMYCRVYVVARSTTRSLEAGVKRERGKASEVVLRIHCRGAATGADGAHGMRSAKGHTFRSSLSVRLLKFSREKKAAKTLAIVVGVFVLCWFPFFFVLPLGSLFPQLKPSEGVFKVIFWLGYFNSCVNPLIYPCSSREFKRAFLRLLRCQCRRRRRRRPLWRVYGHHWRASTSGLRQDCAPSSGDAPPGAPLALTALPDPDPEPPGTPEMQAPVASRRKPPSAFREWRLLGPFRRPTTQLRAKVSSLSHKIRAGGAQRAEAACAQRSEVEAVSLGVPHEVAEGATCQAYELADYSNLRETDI
Description: Compounds of invention were incubated with 0.6 nM [^3H]Prozosin for 60 minutes at 25° C. Non-specific binding was estimated in the presence of 10 μM phentolamine. Receptor proteins were filtered and washed, the filters were then counted to determine [^3H]Prozosin specifically bound. […] Biochemical assay results are presented as the percent inhibition of specific binding in Table 6.

[3] = target: T3, human recombinant dopamine D2L receptor (Homo sapiens, UniProt P14416); experiment: Dopamine D2L radioligand binding ([3H]Spiperone); details: percent inhibition of specific binding
T3 construct: expressed in transfected cells; host or cells: CHO cells
T3 sequence (P14416 whole entry): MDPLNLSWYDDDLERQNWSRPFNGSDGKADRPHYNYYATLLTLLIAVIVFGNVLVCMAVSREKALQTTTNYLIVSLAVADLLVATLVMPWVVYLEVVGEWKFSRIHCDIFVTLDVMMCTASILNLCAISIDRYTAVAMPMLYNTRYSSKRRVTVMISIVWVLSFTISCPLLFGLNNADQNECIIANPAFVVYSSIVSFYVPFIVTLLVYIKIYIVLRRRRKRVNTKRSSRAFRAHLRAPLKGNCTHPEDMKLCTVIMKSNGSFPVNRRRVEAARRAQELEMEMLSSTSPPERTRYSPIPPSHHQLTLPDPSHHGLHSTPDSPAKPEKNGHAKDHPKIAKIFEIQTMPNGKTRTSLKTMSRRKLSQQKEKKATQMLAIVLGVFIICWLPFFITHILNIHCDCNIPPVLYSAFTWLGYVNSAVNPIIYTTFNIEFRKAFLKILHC
Description: Non-specific binding was estimated in the presence of 10 μM Haloperidol. Receptor proteins were filtered and washed, the filters were then counted to determine [^3H]Spiperone specifically bound. […] Biochemical assay results are presented as the percent inhibition of specific binding in Table 6.

[4] = target: T4, Serotonin (5-Hydroxytryptamine) 5-HT7 (Homo sapiens, UniProt P34969); experiment: Serotonin 5-HT7 radioligand binding ([3H]LSD); set-up: Inhibition of ligand binding, Ser. 5-HT7: concentration or dose not given beside the values; details: for Inhibition of ligand binding, Ser. 5-HT7: percent inhibition of specific binding
T4 construct: expressed in transfected cells; host or cells: CHO cells
T4 sequence (P34969 whole entry): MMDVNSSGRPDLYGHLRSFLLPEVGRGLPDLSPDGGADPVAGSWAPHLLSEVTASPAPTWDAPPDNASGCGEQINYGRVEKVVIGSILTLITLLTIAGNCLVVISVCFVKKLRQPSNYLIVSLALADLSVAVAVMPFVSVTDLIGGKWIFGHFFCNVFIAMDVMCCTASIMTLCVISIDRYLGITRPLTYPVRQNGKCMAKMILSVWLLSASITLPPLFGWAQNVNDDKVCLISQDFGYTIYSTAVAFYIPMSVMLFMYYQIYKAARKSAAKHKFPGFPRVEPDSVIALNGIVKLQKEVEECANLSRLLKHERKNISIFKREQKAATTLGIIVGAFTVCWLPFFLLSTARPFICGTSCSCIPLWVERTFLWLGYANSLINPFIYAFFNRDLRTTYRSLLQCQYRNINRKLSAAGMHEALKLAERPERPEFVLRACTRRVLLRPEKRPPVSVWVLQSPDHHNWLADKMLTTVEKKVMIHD
Description: Lysergic acid diethylamide (LSD) for 2 hours at 25° C. […] Receptor proteins were filtered and washed, the filters were then counted to determine [^3H]LSD specifically bound. […] Biochemical assay results are presented as the percent inhibition of specific binding in Table 6.

[5] = target: T5, human recombinant adrenergic α2B receptor (Homo sapiens, UniProt P18089); experiment: Adrenergic α2B radioligand binding ([3H]Rauwolscine); set-up: Inhibition of ligand binding, Adren. alpha2B: concentration or dose not given beside the values; details: for Inhibition of ligand binding, Adren. alpha2B: percent inhibition of specific binding
T5 construct: expressed in transfected cells; host or cells: CHO-K1 cells
T5 sequence (P18089 1-450): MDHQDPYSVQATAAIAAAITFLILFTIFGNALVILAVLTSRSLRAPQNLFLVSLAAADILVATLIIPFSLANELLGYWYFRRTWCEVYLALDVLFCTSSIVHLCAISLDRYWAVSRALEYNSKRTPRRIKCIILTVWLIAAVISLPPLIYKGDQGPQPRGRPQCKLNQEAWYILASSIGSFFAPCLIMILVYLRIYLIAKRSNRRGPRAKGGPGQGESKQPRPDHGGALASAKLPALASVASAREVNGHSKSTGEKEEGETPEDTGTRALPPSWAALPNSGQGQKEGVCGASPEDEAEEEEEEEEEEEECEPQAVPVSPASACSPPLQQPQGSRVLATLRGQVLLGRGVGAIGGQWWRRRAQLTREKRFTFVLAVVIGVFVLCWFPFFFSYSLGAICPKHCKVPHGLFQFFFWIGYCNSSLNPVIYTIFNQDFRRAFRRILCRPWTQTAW
Summary of the method: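 Membranes from CHO-K1 cells expressing the receptor, in 50 mM Tris-HCl pH 7.4 with 12.5 mM MgCl2, 1 mM EDTA, 0.2% BSA, incubated with compounds and 2.5 nM [3H]Rauwolscine for 60 minutes at 25 °C.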

[6] = 0.1 nM [125I]Aminopotentidine, read-out: Histamine Binding H2, percent inhibition of specific binding
[7] = 1 μM compound, 0.1 nM [125I]Aminopotentidine, read-out: Histamine Binding H2, percent inhibition of specific binding
[8] = percent inhibition of specific binding, screened at 1 μM, read-out: Inhibition of ligand binding, Hist. H2

SMILES	inhibition at 0.1 µM ([1]; 0.1 μM compound, 0.1 nM [125I]Aminopotentidine, read-out: Histamine Binding H2, percent inhibition of specific binding) [%]	inhibition at 0.3 µM [1, 6] [%]	inhibition at 1 µM [1, 7] [%]	inhibition at 1 µM [1, 8] [%]	Inhibition of ligand binding, Adren. alpha1D [2] [%]	Inhibition of ligand binding, Dop. D2L [3] [%]	Inhibition of ligand binding, Ser. 5-HT7 [4] [%]	Inhibition of ligand binding, Adren. alpha2B [5] [%]	Hist. H2 ([1]; inhibition profile)	Adren. alpha1D ([2]; inhibition profile)	Adren. alpha2B ([5]; inhibition profile)	Ser. 5-HT7 ([4]; inhibition profile)
Cc1ccc(CCn2c3c(c4ccccc42)CN(C)CC3)cc1 [Compound 1, 2,3,4,5-tetrahydro-2-methyl-5-(4-methylphenethyl)-1H-pyrido[4,3-b]indole]	33	57	82	82	76	62	98					
CCOC(=O)N1CCc2c(c3cc(Br)ccc3n2CCc2ccc(C)nc2)C1 [Compound 18, ethyl 8-bromo-3,4-dihydro-5-(2-(6-methylpyridin-3-yl)ethyl)-1H-pyrido[4,3-b]indole-2(5H)-carboxylate]			1	1	−10	−7	10	−8				
CCOC(=O)N1CCc2c(c3cc(-c4cccnc4)ccc3n2CCc2ccc(C)nc2)C1 [Compound 19, ethyl 3,4-dihydro-5-(2-(6-methylpyridin-3-yl)ethyl)-8-(pyridin-3-yl)-1H-pyrido[4,3-b]indole-2(5H)-carboxylate]			10	10	−6	−5	12	−8				
Cc1ccc2c(c1)c1c(n2CCc2ccncc2)CCN(C)C1 [Compound 22, 2,3,4,5-tetrahydro-2,8-dimethyl-5-(2-(pyridin-4-yl)ethyl)-1H-pyrido[4,3-b]indole]		29	49	53	83	27	99	105				
Cc1ccc2c(c1)c1c(n2CCc2ccccc2F)CCN(C)C1 [Compound 34, 5-(2-fluorophenethyl)-2,3,4,5-tetrahydro-2,8-dimethyl-1H-pyrido[4,3-b]indole]			89	89	76	88	97					
CCN1CCc2c(c3cc(C)ccc3n2Cc2ccc(C)nc2)C1 [Compound 138, 2-ethyl-2,3,4,5-tetrahydro-8-methyl-5-((6-methylpyridin-3-yl)methyl)-1H-pyrido[4,3-b]indole]			27	27	33		23	19				
Cc1ccc2c(c1)c1c(n2Cc2ccc(C)nc2)CCN(C)C1 [Compound 139, 2,3,4,5-tetrahydro-2,8-dimethyl-5-((6-methylpyridin-3-yl)methyl)-1H-pyrido[4,3-b]indole]				7	25		74	52				
CCN1CCc2c(c3cc(C)ccc3n2Cc2ccccc2)C1 [Compound 140, 5-benzyl-2-ethyl-2,3,4,5-tetrahydro-8-methyl-1H-pyrido[4,3-b]indole]			45	45	14		2	−4				
Cc1ccc2c(c1)c1c(n2CCN2CCCC2)CCN(C)C1 [Compound 221, 2,3,4,5-tetrahydro-2,8-dimethyl-5-(2-(pyrrolidin-1-yl)ethyl)-1H-pyrido[4,3-b]indole]			52	52	30		36	26				
Cc1ccc2c(c1)c1c(n2CCC(=O)N2CCC(N)CC2)CCN(C)C1 [Compound 231, 1-(4-aminopiperidin-1-yl)-3-(1,2,3,4-tetrahydro-2,8-dimethylpyrido[4,3-b]indol-5-yl)propan-1-one]			4	4	21		0	11				
Cc1ccc2c(c1)c1c(n2CCc2ccc(C)nc2)C(Br)C(=O)N(C)C1 (stereo not shown) [Compound 232, 4-bromo-1,2-dihydro-2,8-dimethyl-5-(2-(6-methylpyridin-3-yl)ethyl)-4H-pyrido[4,3-b]indol-3(5H)-one]			3	3	5		6	8				
Cc1ccc2c(c1)c1c(n2CCCc2ccccn2)CCN(C)C1 [Compound 233, 2,3,4,5-tetrahydro-2,8-dimethyl-5-(3-(pyridin-2-yl)propyl)-1H-pyrido[4,3-b]indole]			45	45	49		101	96				
Cc1ccc2c(c1)c1c(n2CCc2ccc(C(=O)O)nc2)CCN(C)C1 [Compound 255]			-15	-15	2		11	4				
Cc1ccc(CCn2c3c(c4cc(C(=O)O)ccc42)CNCC3)cn1 [Compound 274, 2,3,4,5-tetrahydro-5-(2-(6-methylpyridin-3-yl)ethyl)-1H-pyrido[4,3-b]indole-8-carboxylic acid]				-2	−16		−3	9				
CN1CCc2c(c3ccccc3n2CCc2ccccn2)C1 [Compound 329, 2,3,4,5-tetrahydro-2-methyl-5-(2-(pyridin-2-yl)ethyl)-1H-pyrido[4,3-b]indole]				16	4		78	68				
Cc1ccc2c(c1)c1c(n2CCc2ccc(C)nc2)CC[N+](C)([O-])C1 (stereo not shown) [Example 93, 2,8-dimethyl-5-(2-(6-methylpyridin-3-yl)ethyl)-2,3,4,5-tetrahydro-1H-pyrido[4,3-b]indole 2-oxide]									19	19	36	35
